The numbers were not newly measured in patent US5545648A (Canadian Spinal Research Organization, priority 1992, dated 1996), which cites them from elsewhere.

The test system of one series is potassium channels. The conditions noted are these: cited from earlier work.
The subject of series [1] is spinal cord injury patients. Particulars: cited from earlier work.

As for `Nc1ccncc1` [4-AP, 4-aminopyridine], the “spontaneous activity of injured nerve fibres on potassium channel blockade” value in the series on potassium channels was “tends to produce or enhance such spontaneous activity and to elicit "burst" (multiple action potential) responses”. Also, in series [1] (human, in vivo), the serious side effects entry is “lack of serious side effects”. The therapeutic benefit result in series [1] (mostly electrophysiological level) is listed as “modest therapeutic benefit”.
